Results published in patent US10669272B2, “Substituted naphthyridinone compounds useful as T cell activators” (BRISTOL-MYERS SQUIBB COMPANY, priority 2018, dated 2020).
Where two headings read alike, the source gives them in different places.

Assays:
human DGKα = biological target: T1, human DGKα (Homo sapiens, UniProt P23743); experiment: DGKα LIPGLO assay (extruded liposome substrate), in vitro DGK inhibition; format: biochemical; details: read-out: DGKa LIPGLO IC50
T1 construct: TVMV protease cleavage site (C); Hexa-His (C); made in house; host or cells: Sf9 insect cells (baculovirus, Bac-to-Bac)

human DGKζ = biological target: T2, human DGKζ (Homo sapiens, UniProt Q13574); experiment: DGKζ LIPGLO assay (extruded liposome substrate), in vitro DGK inhibition; format: biochemical; details: read-out: DGKz LIPGLO IC50
T2 construct: TVMV protease cleavage site (C); Hexa-His (C); made in house; host or cells: Sf9 insect cells (baculovirus, Bac-to-Bac)

Human venous whole blood = experiment: Human whole blood IFN-γ assay; format: cell-based; details: human whole blood, read-out: INFg Whole Blood Normalized Agonist EC50;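 note: blood from healthy donors exposed to compound for 1 h before stimulation with anti-CD3 and anti-CD28 at 1 µg/mL each, IFN-γ quantified in supernatant by AlphaLISA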
[1] = anti-CD3 plus anti-CD28, 24 hours, 3 μM reference compound = 100% activation
[2] = normalized to 3 μM reference compound with anti-CD3 plus anti-CD28 as 100% activation
[3] = Homo sapiens, 24 h, normalized to 3 μM reference compound with anti-CD3 plus anti-CD28 as 100% activation

T2 sequence (Q13574 with tags, fused parts or gaps isoform Q13574-4): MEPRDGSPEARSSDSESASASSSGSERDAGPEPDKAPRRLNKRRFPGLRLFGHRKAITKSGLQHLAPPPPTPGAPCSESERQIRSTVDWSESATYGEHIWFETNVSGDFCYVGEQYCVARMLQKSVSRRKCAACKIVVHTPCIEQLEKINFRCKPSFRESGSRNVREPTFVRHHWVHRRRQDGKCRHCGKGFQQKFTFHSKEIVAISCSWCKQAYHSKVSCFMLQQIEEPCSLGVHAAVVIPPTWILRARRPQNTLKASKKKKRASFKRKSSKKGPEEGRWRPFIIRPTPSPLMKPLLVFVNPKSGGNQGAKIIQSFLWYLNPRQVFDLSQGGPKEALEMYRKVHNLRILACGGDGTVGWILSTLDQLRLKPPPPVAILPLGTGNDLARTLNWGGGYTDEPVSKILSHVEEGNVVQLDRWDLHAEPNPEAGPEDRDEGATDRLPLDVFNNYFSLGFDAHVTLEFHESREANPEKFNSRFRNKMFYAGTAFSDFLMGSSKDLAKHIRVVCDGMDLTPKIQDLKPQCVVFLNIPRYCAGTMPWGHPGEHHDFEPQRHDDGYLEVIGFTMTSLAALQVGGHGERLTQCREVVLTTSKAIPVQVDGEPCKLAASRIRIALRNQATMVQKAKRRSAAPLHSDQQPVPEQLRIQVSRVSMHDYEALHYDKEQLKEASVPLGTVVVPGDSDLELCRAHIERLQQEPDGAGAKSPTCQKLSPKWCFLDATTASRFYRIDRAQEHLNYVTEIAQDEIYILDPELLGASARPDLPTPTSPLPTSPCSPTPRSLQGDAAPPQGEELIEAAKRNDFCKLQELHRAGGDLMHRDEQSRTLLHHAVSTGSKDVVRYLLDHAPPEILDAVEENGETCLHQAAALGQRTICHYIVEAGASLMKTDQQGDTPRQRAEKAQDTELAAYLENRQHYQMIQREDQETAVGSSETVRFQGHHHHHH
T1 sequence (P23743 with tags, fused parts or gaps): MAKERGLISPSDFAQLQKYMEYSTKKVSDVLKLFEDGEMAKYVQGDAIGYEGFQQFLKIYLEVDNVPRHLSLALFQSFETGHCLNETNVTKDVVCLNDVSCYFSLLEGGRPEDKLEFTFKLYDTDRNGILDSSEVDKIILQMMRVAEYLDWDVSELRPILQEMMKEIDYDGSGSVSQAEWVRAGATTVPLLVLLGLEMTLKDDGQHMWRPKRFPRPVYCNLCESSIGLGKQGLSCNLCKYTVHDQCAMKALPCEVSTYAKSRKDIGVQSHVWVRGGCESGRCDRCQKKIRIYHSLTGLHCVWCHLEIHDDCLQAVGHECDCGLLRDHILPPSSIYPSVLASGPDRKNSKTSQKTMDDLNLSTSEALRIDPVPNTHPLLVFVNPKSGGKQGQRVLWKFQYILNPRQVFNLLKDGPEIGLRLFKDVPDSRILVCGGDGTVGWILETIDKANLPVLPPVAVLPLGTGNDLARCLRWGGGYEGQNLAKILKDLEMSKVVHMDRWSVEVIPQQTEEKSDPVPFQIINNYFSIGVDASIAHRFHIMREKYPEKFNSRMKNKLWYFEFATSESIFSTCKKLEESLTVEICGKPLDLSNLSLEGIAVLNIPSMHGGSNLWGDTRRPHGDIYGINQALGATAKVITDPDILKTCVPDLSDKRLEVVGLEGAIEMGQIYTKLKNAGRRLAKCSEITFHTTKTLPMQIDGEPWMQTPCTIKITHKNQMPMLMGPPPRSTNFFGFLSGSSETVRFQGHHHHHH

| SMILES | IC50 (human DGKα; DGKα liposome (LIPGLO) assay) [nM] | IC50 (human DGKζ; DGKζ liposome (LIPGLO) assay) [nM] | IC50 (human DGKα; liposome (LIPGLO) assay) [nM] | IC50 (human DGKζ; liposome (LIPGLO) assay) [nM] | EC50 (Human venous whole blood; [1]) [nM] | EC50 (Human venous whole blood; [2]) [nM] | EC50 (Human venous whole blood; [3]) [nM] |
| --- | --- | --- | --- | --- | --- | --- | --- |
| C[C@@H]1CN(c2cc(=O)n(C)c3ccc(C#N)nc23)[C@@H](C)CN1C(c1ccc(F)cc1)c1nc(C2CCN(C)CC2)no1 (single isomer, unassigned) [Example 752] | 1000 | 4100 |  |  | 1700 |  |  |
| C[C@@H]1CN(c2cc(=O)n(C)c3ccc(C#N)nc23)[C@@H](C)CN1C(c1ccc(F)cc1)c1cncnc1 (single isomer, unassigned) [Example 394] |  |  | 42000 | 49000 |  | 18000 |  |
| C[C@@H]1CN(c2cc(=O)n(C)c3ccc(C#N)nc23)[C@@H](C)CN1C(c1ccc(F)cc1)c1cnn(C)c1 (single isomer, unassigned) [Example 703] |  |  | 4000 | 2500 |  | 1200 |  |
| COc1ccc(C(c2ccc(F)cc2)N2C[C@H](C)N(c3cc(=O)n(C)c4ccc(C#N)nc34)C[C@H]2C)cc1 (stereo partly drawn) [Example 658] |  |  | 690 | 590 |  | 1500 |  |
| CC(c1ccc(C(F)(F)F)cc1F)N1C[C@H](C)N(c2cc(=O)n(C)c3ccc(C#N)nc23)C[C@H]1C (stereo partly drawn) [Example 431, 8-((2S,5R)-4-(1-(2-fluoro-4-(trifluoromethyl)phenyl)ethyl)-2,5-dimethylpiperazin-1-yl)-5-methyl-6-oxo-5,6-dihydro-1,5-naphthyridine-2-carbonitrile] |  |  | 7300 | 1100 |  |  | 1600 |
| CC[C@H]1CN(C(C)c2ccc(F)cc2)[C@H](CC)CN1c1cc(=O)n(C)c2ccc(C#N)nc12 (single isomer, unassigned) [Example 1050] |  |  | 510 | 900 |  | 4400 |  |
| CC(C)Oc1ccc(C(C)N2C[C@H](C)N(c3cc(=O)n(C)c4ccc(C#N)nc34)C[C@H]2C)cn1 (single isomer, unassigned) [Example 1324] |  |  | 12000 | 140 |  | 690 |  |
| CC[C@H]1CN(C(c2ccc(F)cc2)c2cccc(C(F)(F)F)n2)[C@H](C)CN1c1cc(=O)n(C)c2ccc(C#N)nc12 (single isomer, unassigned) [Example 1134] |  |  | 360 | 130 |  | 340 |  |
| Cc1ccc(C(c2ccc(F)cc2Cl)N2C[C@H](C)N(c3c(C#N)c(=O)n(C)c4ccc(C#N)nc34)C[C@H]2C)nc1 (stereo partly drawn) [Example 832] | 19000 | 2700 |  |  | 1800 |  |  |
| CC[C@H]1CN(C(c2ccc(F)cc2)c2cccc(C(F)(F)F)n2)[C@H](C)CN1c1cc(=O)n(C)c2ccc(C#N)nc12 (single isomer, unassigned) [Example 1133] |  |  | 1600 | 130 |  |  | 570 |
| CC[C@@H]1CN(c2cc(=O)n(C)c3ccc(C#N)nc23)[C@@H](C)CN1C(C)c1ccc(F)c(F)c1 (single isomer, unassigned) [Example 1092] |  |  | 3700 | 4000 |  | 3200 |  |

Further compounds by falling IC50 (human DGKα; liposome (LIPGLO) assay), results first:

| IC50 (human DGKα; DGKα liposome (LIPGLO) assay) [nM] | IC50 (human DGKζ; DGKζ liposome (LIPGLO) assay) [nM] | IC50 (human DGKα; liposome (LIPGLO) assay) [nM] | IC50 (human DGKζ; liposome (LIPGLO) assay) [nM] | SMILES | EC50 (Human venous whole blood; [1]) [nM] | EC50 (Human venous whole blood; [2]) [nM] | EC50 (Human venous whole blood; [3]) [nM] |
| --- | --- | --- | --- | --- | --- | --- | --- |
|  |  | 300 | 160 | CC(c1cc(OC(F)F)ccc1F)N1C[C@H](C)N(c2cc(=O)n(C)c3ccc(C#N)nc23)C[C@H]1C (single isomer, unassigned) [Example 1229] |  |  | 510 |
|  |  | 200 | 19 | COc1cc(F)c(C(C)N2C[C@H](C)N(c3cc(=O)n(C)c4ccc(C#N)nc34)C[C@H]2C)c(F)c1 (stereo partly drawn) [Example 1242] |  |  | 180 |
|  |  | 84 | 1400 | CC[C@@H]1CN(c2cc(=O)n(C)c3ccc(C#N)nc23)[C@@H](C)CN1C(c1ccc(F)cc1)c1ccon1 (single isomer, unassigned) [Example 1115] |  | 800 |  |
|  |  | 81 | 320 | CCC(c1ccc(OC(F)(F)F)cc1F)N1C[C@H](C)N(c2cc(=O)n(C)c3ccc(C#N)nc23)C[C@H]1C (single isomer, unassigned) [Example 440] |  | 1000 |  |
|  |  | 26 | 45 | CC[C@H]1CN(C(C)c2ccc(F)cc2F)[C@H](C)CN1c1cc(=O)n(C)c2ccc(C#N)nc12 (single isomer, unassigned) [Example 1137] |  | 290 |  |
